pIC50, pKi: −log10 of the molar value.

The results in this text go back to ChEMBL document CHEMBL1154969, “LXXLL peptide mimetics as inhibitors of the interaction of vitamin D receptor with coactivators” (Bioorg Med Chem Lett, 2010).

One assay concerns the target T1, Androgen receptor (Homo sapiens, UniProt P10275).
T1 sequence (P10275 whole entry): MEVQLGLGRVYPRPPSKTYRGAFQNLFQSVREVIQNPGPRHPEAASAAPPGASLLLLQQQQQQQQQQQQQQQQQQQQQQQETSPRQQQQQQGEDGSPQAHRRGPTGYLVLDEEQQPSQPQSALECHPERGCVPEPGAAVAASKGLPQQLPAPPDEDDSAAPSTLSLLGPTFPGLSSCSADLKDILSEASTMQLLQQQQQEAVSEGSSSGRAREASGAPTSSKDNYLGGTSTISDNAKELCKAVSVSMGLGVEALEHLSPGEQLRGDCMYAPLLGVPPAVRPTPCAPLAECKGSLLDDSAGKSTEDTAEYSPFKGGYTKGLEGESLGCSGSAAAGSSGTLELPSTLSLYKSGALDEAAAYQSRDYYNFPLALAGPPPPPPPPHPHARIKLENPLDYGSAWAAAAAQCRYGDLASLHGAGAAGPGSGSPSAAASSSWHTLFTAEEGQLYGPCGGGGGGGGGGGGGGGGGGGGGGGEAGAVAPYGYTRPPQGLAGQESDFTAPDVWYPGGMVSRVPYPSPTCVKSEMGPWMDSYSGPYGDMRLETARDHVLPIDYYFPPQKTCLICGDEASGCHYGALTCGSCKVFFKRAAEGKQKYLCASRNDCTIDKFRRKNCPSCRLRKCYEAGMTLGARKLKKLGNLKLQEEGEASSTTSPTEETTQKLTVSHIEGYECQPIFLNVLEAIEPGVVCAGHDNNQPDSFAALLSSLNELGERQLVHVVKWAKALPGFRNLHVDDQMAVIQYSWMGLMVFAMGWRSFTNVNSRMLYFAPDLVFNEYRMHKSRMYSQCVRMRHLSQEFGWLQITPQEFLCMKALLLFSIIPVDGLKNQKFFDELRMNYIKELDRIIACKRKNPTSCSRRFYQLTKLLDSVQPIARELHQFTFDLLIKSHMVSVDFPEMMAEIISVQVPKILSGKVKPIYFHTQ
Briefly: Inhibition of AR.

Assay [1] deals with T2, Estrogen receptor (Homo sapiens, UniProt P03372).
T2 sequence (P03372 whole entry): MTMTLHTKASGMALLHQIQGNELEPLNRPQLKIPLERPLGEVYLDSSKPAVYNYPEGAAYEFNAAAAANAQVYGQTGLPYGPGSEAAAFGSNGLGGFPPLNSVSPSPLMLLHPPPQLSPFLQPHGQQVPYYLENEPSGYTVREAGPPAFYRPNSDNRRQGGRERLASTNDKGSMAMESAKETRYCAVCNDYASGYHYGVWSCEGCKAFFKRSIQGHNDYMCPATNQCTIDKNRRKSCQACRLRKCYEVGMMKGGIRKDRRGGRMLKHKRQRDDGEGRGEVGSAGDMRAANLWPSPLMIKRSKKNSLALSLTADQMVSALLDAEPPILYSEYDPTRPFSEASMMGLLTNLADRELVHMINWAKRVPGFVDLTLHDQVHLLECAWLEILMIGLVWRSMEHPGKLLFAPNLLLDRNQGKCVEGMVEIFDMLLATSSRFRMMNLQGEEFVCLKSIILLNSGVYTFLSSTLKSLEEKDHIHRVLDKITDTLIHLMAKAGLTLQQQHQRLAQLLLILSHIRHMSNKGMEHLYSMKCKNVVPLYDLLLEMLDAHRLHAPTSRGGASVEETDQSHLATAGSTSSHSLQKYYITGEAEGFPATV
The assay is described as follows: Inhibition of ER.

Assay [2] deals with T3, Vitamin D3 receptor (Homo sapiens) (UniProt P11473).
T3 sequence (whole entry): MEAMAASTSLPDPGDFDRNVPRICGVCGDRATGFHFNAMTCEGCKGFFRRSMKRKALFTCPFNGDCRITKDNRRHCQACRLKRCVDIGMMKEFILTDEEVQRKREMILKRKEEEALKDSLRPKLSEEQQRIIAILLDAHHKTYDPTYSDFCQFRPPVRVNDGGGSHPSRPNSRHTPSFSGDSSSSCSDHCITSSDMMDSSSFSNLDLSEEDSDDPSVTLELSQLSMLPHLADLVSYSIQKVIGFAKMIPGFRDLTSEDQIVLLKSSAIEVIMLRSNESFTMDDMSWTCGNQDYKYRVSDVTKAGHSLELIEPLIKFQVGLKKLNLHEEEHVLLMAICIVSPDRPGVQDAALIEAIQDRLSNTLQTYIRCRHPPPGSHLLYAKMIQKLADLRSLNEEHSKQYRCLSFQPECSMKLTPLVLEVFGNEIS
Briefly: Displacement of 1,25-dihydroxyvitamin D3 from GST-tagged VDR ligand binding domain assessed as inhibition of interaction with coactivator proteins at 30 uM by TR-FRET assay. (In general: Time-resolved FRET reads energy transfer from a long-lived donor to a nearby acceptor.)

Assay [3] deals with T4, Vitamin D3 receptor (Homo sapiens, UniProt P11473).
T4 sequence (P11473 whole entry): T3 sequence (whole entry)
The assay is described as follows: Displacement of 1,25-dihydroxyvitamin D3 from GST-tagged VDR ligand binding domain assessed as inhibition of interaction with coactivator proteins by TR-FRET assay.

Assay [4] addresses T3, Vitamin D3 receptor (Homo sapiens). Briefly: Antagonist activity at human recombinant VDR LBD expressed in HEK293 cells assessed as inhibition of 300 nM 1,25-(OH)2D3-induced transcriptional activation at 30 uM after 16 to 18 hrs by GAL4-dependent luciferase reporter gene assay. It counts as functional, cell-based.
Assay [5] addresses T4, Vitamin D3 receptor. The assay is described as follows: (§1) Antagonist activity at human recombinant VDR LBD expressed in HEK293 cells assessed as inhibition of 300 nM 1,25-(OH)2D3-induced transcriptional activation after 16 to 18 hrs by GAL4-dependent luciferase reporter gene assay. It is filed as functional, cell-based. For orientation: In a reporter assay the amount or activity of a reporter protein is the signal.

Assay [6] concerns the target T4, Vitamin D3 receptor. The assay is described as follows: Antagonist activity at human recombinant VDR LBD expressed in HEK293 cells assessed as inhibition of 3 nM 1,25-(OH)2D3-induced transcriptional activation after 16 to 18 hrs by GAL4-dependent luciferase reporter gene assay. It counts as functional, cell-based.
For assay [7], the target named is T2, Estrogen receptor. The assay is described as follows: Antagonist activity at human recombinant ERalpha LBD expressed in HEK293 cells assessed as inhibition of 0.3 nM estradiol-induced transcriptional activation after 16 to 18 hrs by GAL4-dependent luciferase reporter gene assay. It counts as functional, cell-based.
Assay [8] deals with T3, Vitamin D3 receptor (Homo sapiens). Briefly: Antagonist activity at human recombinant VDR LBD expressed in HEK293 cells assessed as inhibition of 3 nM 1,25-(OH)2D3-induced transcriptional activation at 30 uM after 16 to 18 hrs by GAL4-dependent luciferase reporter gene assay. It is filed as functional, cell-based.
Assay [9] has as its target T5, Estrogen receptor beta (Homo sapiens, UniProt Q92731). Briefly: Antagonist activity at human recombinant ERbeta LBD expressed in HEK293 cells assessed as inhibition of 0.3 nM estradiol-induced transcriptional activation at 30 uM after 16 to 18 hrs by GAL4-dependent luciferase reporter gene assay. It is filed as functional, cell-based.
Assay [10] addresses T6, Estrogen receptor (Homo sapiens) (UniProt P03372).
T6 sequence (whole entry): T2 sequence (P03372 whole entry)
Particulars: HEK293, 30 uM.
Description: Antagonist activity at human recombinant ERalpha LBD expressed in HEK293 cells assessed as inhibition of 0.3 nM estradiol-induced transcriptional activation at 30 uM after 16 to 18 hrs by GAL4-dependent luciferase reporter gene assay

For assay [11], the target named is T5, Estrogen receptor beta. The assay is described as follows: Antagonist activity at human recombinant ERbeta LBD expressed in HEK293 cells assessed as inhibition of 0.3 nM estradiol-induced transcriptional activation after 16 to 18 hrs by GAL4-dependent luciferase reporter gene assay. It is filed as functional, cell-based.
Assay [12] concerns the target T3, Vitamin D3 receptor (Homo sapiens). Briefly: Displacement of 1,25-dihydroxyvitamin D3 from GST-tagged VDR ligand binding domain assessed as inhibition of interaction with coactivator proteins at 10 uM by TR-FRET assay.
Assay [13] shares this target. The assay is described as follows: Antagonist activity at human recombinant VDR LBD expressed in HEK293 cells assessed as inhibition of 3 nM 1,25-(OH)2D3-induced transcriptional activation at 10 uM after 16 to 18 hrs by GAL4-dependent luciferase reporter gene assay. It is filed as functional, cell-based.
Assay [14] shares this target. The assay is described as follows: Antagonist activity at human recombinant VDR LBD expressed in HEK293 cells assessed as inhibition of 300 nM 1,25-(OH)2D3-induced transcriptional activation at 10 uM after 16 to 18 hrs by GAL4-dependent luciferase reporter gene assay. It is filed as functional, cell-based.
For assay [15] the target is unchanged. Described as §1. It is filed as functional, cell-based.

T5 sequence (Q92731 whole entry, the tested form may be a part): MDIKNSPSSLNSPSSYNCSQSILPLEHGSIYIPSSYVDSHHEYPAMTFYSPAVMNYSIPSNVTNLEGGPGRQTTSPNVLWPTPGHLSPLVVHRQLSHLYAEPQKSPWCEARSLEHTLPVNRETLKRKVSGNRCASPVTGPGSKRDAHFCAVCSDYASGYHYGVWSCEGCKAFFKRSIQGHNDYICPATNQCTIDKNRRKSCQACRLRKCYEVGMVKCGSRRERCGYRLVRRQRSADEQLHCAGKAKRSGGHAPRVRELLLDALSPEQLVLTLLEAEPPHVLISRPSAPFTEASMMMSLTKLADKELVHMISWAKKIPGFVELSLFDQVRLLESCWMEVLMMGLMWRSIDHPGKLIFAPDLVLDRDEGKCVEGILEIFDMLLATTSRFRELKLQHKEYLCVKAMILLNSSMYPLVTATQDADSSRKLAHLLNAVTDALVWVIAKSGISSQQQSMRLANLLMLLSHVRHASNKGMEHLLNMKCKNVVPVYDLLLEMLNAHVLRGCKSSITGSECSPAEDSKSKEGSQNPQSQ

A word on the pKi: it is the Ki on a negative log10 scale, so that one unit is a factor of ten. A higher pKi goes with a low Ki. The compound `CC(C)CNc1cc(CCc2cccc3ccccc23)nc(NCc2cccc3ccccc23)n1` had a pKi on Androgen receptor of 5.82.

In turn, `CC(C)CNc1cc(CC(C)C)nc(NCC(C)C)n1` showed a pKi at Estrogen receptor [1] of 4.54.

For orientation: inhibition means the change of the read-out against control, counted positive when it falls. What is called pIC50 is the IC50 on a negative log10 scale, so that one unit is a factor of ten. Take `CC(=O)NCCNc1cc2c(cc1CC(C)C)CN(CCC(C)C)C(=O)[C@H](CC(C)C)N2`: in [2], the inhibition stood at 43%. The pIC50 at Vitamin D3 receptor [3] was < 4.52.

For `CC(C)CCN1Cc2cc(CC(C)C)c(NC(=N)N)cc2N[C@@H](CC(C)C)C1=O`, in assay [2], the inhibition worked out at 46%. Moreover, the pIC50 at Vitamin D3 receptor [3] was < 4.52.

Turning to `CC(C)=Cc1cc2c(cc1N)N[C@@H](CC(C)C)C(=O)N(CCC(C)C)C2`, the inhibition came out at 59% in [4]; 68% in assay [8]; 56% on Estrogen receptor beta [9]; 8% in [10]; 76% in assay [2]. In addition, the pIC50 on Vitamin D3 receptor [5] is 4.64; on Vitamin D3 receptor [6], 4.77; at Estrogen receptor [7], < 4.52; at Estrogen receptor beta [11], 4.66; on Vitamin D3 receptor [3], 4.70.

For the compound `C=C1/C(=C\C=C2/CCC[C@]3(C)[C@@H]([C@H](C)C[C@H]4C[C@@](C)(O)C(=O)N4CCc4ccccc4)CC[C@@H]23)C[C@@H](O)C[C@@H]1O`, the results for the inhibition in assay [12], in assay [13] and in assay [14] were 87%, 98% and 66%, respectively. Further, the figures for the pIC50 on Vitamin D3 receptor [5] and at Vitamin D3 receptor [6] were 5.48 and 6.66, respectively.

In the case of `CC(C)CCN1Cc2cc(CC(C)C)c(N)cc2N[C@@H](CC(C)C)C1=O`, the inhibition came to 53% in [4]; 8% in [15]; 47% in assay [8]; 18% on Estrogen receptor beta [9]; 48% in assay [2]. Also, the pIC50 at Vitamin D3 receptor [5] was 4.52; at Vitamin D3 receptor [6] it was 4.52; on Estrogen receptor [7], < 4.52; at Estrogen receptor beta [11], < 4.52; on Vitamin D3 receptor [3], 4.52.

Turning to `CC(C)Cc1cc(O)c(=O)n(Cc2ccc3ccccc3c2)c1-c1ccnc(Cc2ccccc2)c1`, the pKi at Estrogen receptor [1] was 5.38.

For `CC(C)CCN1Cc2cc(CC(C)C)c(NCCN)cc2N[C@@H](CC(C)C)C1=O`, the pIC50 at Vitamin D3 receptor [3] is 4.55.

With `CC(C)CCN1Cc2cc(CC(C)C)c(NCCNC(=O)OC(C)(C)C)cc2N[C@@H](CC(C)C)C1=O`, on Vitamin D3 receptor [3], the pIC50 was 4.89.
